# Values quoted from earlier work, collected in patent publication US10563162B2, “Microbial electro-photosynthesis” (Arizona Board of Regents on behalf of Arizona State …, priority 2014, dated 2020).
# Details: listed property of redox mediator / natural electron acceptor; no method given
"midpoint potential (E^0,) [mV]",number of electrons transported (# e−),Molecule
11,2,CN(C)c1ccc2nc3ccc(=[N+](C)C)cc-3sc2c1 [Methylene Blue]
80,2,CC(C)=CCC/C(C)=C/CC/C(C)=C/CC/C(C)=C/CC/C(C)=C/CC/C(C)=C/CC/C(C)=C/CC/C(C)=C/CC/C(C)=C/CC1=CC(=O)C(C)=C(C)C1=O [Plastoquinone]
64,2,Thionine

Molecule,"midpoint potential (E^0,) [mV]",number of electrons transported (# e−)
O=C1C=CC(=O)C=C1 [Benzoquinone],280,2
CC1=C(C)C(=O)C(C)=C(C)C1=O [Duroquinone],5,2
